Structures can show the parent of a compound that is named as a salt.
melting point	Compound
212 to 214 °C	COc1nccnc1NS(=O)(=O)c1sc(Cl)c(Cl)c1Cl [Example 1, 3,4,5-Trichloro-N-(3-methoxypyrazin-2-yl)thiophene-2-sulphonamide]
151.5 to 152.5 °C	COc1nccnc1NS(=O)(=O)c1scc(Cl)c1Cl [Example 2, 3,4-Dichloro-N-(3-methoxypyrazin-2-yl)thiophene-2-sulphonamide]
178 to 179 °C	COc1nc(Cl)cnc1NS(=O)(=O)c1sc(Cl)c(Cl)c1Cl [Example 7, 3,4,5-Trichloro-N-(5-chloro-3-methoxypyrazin-2-yl)thiophene-2-sulphonamide.]
116 to 117 °C	COc1nc(Cl)cnc1NS(=O)(=O)c1scc(Cl)c1Cl [Example 8, 3,4-Dichloro-N-(5-chloro-3-methoxypyrazin-2-yl)thiophene-2-sulphonamide.]
117 to 118 °C	COc1nc(C)cnc1NS(=O)(=O)c1scc(Cl)c1Cl [Example 4, 3,4-Dichloro-N-(3-methoxy-5-methylpyrazin-2-yl)thiophene-2-sulphonamide]
211 °C (dec.)	COc1nc(Br)cnc1NS(=O)(=O)c1sc(Cl)c(Cl)c1Cl (as salt: ammonium) [Example 6, N-(5-Bromo-3-methoxypyrazin-2-yl)-3,4,5-trichlorothiophene-2-sulphonamide, ammonium salt]
146 to 147 °C	COc1nc(C)cnc1NS(=O)(=O)c1sc(Cl)c(Cl)c1Cl [Example 3, 3,4,5-Trichloro-N-(3-methoxy-5-methylpyrazin-2-yl)thiophene-2-sulphonamide]
204 °C (dec.)	COc1nc(Br)cnc1NS(=O)(=O)c1scc(Cl)c1Cl (as salt: ammonium) [Example 5, N-(5-Bromo-3-methoxypyrazin-2-yl)-3,4-dichlorothiophene-2-sulphonamide, ammonium salt]

Source: patent US20060128723A1, “Sulptionamide compounds that modulate chemokine receptor activity (CCR4)” (priority 2003, published 2006)
